Assay: Colorimetric (Ehrlich's reagent) detection of kynurenine-like molecules; thermal forced degradation / storage
Type: physicochemical
Text: The quantitation of kynurenine-like species in […] was detected using a modified method by Meyer et al. (“Suitability of recombinant Escherichia coli and Pseudomonas putida strains for selective biotransformation of m-nitrotoluene by xylene monooxygenase”, Appl Environ Microbiol 71 (2005) 6624-6632). The method is based on the reaction of p-dimethylamino-benzaldehyde (DMAB or Ehrlich's reagent) with primary aromatic amines to form yellow imines in acidic conditions. Briefly, […], […] or kynurenine standard (0-800 μM in 0.9% saline) was combined in triplicate with 100 μL Ehrlich's reagent in a 96-well plate. The plate was read at 492 nm using a SpectraMax M2 plate reader (Molecular Devices, Sunnyvale, Calif., USA). […] […] was incubated at ambient temperature or 80° C. for 6 days. Aliquots were collected at 0, 1, 2, 3, or 6 days and analyzed in triplicate for kynurenine-like molecules using the colorimetric assay described in Section 2.3. Also, 4 mM N-acetyl tryptophan in 0.9% saline was incubated at 80° C. for 6 days.

concentration of kynurenine-like molecules (4 mM in 0.9% saline heated at 80° C. for 6 days): 11.6 µM
levels of kynurenine-like molecules (4 mM in 0.9% saline, t=0): undetectable
Compound: CC(=O)N[C@@H](Cc1c[nH]c2ccccc12)C(=O)O [NAT, N-acetyl tryptophan]
